According to paper PMC8804275 (IBRO Neuroscience Reports, 2022):

Tests used:
hCB1R [1] = target: T1, hCB1R (Homo sapiens, UniProt P21554); assay: HitHunter cAMP assay, inhibition of forskolin-stimulated cAMP; format: cell-based; conditions: 10 µM FSK, 90 min, 37 °C; agonism mode without CP55,940; allosteric ago-PAM
hCB1R [2] = target: T1, hCB1R; assay: PathHunter βarrestin2 recruitment assay; format: cell-based; conditions: 90 min, 37 °C; agonism mode without CP55,940; allosteric ago-PAM

T1 sequence (P21554 whole entry): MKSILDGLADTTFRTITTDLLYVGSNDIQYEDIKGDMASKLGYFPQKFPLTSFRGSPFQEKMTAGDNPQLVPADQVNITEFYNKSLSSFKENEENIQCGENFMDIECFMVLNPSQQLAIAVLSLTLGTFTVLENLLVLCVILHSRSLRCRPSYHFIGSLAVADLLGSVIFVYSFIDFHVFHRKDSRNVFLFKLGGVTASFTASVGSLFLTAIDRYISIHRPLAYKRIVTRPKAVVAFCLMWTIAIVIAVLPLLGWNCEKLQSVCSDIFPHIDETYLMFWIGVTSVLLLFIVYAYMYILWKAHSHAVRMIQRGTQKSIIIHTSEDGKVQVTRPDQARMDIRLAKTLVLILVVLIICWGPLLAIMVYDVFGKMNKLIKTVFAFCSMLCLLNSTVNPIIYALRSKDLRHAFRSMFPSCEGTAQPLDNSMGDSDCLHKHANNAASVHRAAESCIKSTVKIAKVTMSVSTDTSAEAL

O=[N+]([O-])CC(c1ccccc1F)c1c(-c2cccc(F)c2)[nH]c2c(F)cccc12 (stereo not shown) [GAT593]
EC50 (hCB1R [1]): 0.045 µM
EC50 (hCB1R [2]): > 10 µM

GAT591
EC50 (hCB1R [1]): 0.0041 µM
EC50 (hCB1R [2]): 1.3 µM
